Assay results reported in PubChem BioAssay (NCI).
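These data come from cells grown in 96-well plates and exposed to compound for 48 hours at five concentrations. TGI is the concentration that stops growth completely.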

Tests used:
Test in all cases: DTP human tumour cell line panel, 48 h
A549 NSCLC = test system: A549 NSCLC
CCRF-CEM leukemia = test system: CCRF-CEM leukemia
EKVX NSCLC = test system: EKVX NSCLC
HCC-2998 colon = test system: HCC-2998 colon
HCT-116 colon = test system: HCT-116 colon
HT29 colon = test system: HT29 colon
MOLT-4 leukemia = test system: MOLT-4 leukemia
NCI-H460 lung = test system: NCI-H460 lung
OVCAR-5 ovarian = test system: OVCAR-5 ovarian
RPMI-8226 leukemia = test system: RPMI-8226 leukemia
RXF 393 renal = test system: RXF 393 renal
SF-539 CNS = test system: SF-539 CNS
SK-MEL-28 melanoma = test system: SK-MEL-28 melanoma
SK-MEL-5 melanoma = test system: SK-MEL-5 melanoma
TK-10 renal = test system: TK-10 renal
UO-31 renal = test system: UO-31 renal
XF 498 CNS = test system: XF 498 CNS
BT-549 breast = test system: BT-549 breast
NCI/ADR-RES ovarian = test system: NCI/ADR-RES ovarian
PC-3 prostate = test system: PC-3 prostate

Molecule `COc1c2c(c3ccccc3c1O)C1C=CC2C1` (stereo unspecified) has a TGI (A549 NSCLC) of 36.6 µM, a TGI (CCRF-CEM leukemia) of 97.6 µM and a TGI (EKVX NSCLC) of 33 µM. It also gave a TGI (HCC-2998 colon) of 29.7 µM, a TGI (HCT-116 colon) of 14.6 µM and a TGI (HT29 colon) of 39.2 µM. It also gave a TGI (MOLT-4 leukemia) of 47.2 µM, a TGI (NCI-H460 lung) of 34 µM and a TGI (OVCAR-5 ovarian) of 33.9 µM. For the same molecule, the TGI (RPMI-8226 leukemia) was > 100 µM, the TGI (RXF 393 renal) was 28.9 µM and the TGI (SF-539 CNS) was 29 µM. It also gave a TGI (SK-MEL-28 melanoma) of 37.9 µM, a TGI (SK-MEL-5 melanoma) of 19.1 µM and a TGI (TK-10 renal) of 36.8 µM. The TGI (UO-31 renal) was 17.6 µM and the TGI (XF 498 CNS) was 27.9 µM.
With `Nc1[nH]nc2nc3ccccc3nc12` the TGI (A549 NSCLC) was > 100 µM, the TGI (BT-549 breast) was > 100 µM and the TGI (CCRF-CEM leukemia) was > 100 µM. For the same molecule, the TGI (EKVX NSCLC) was > 100 µM, the TGI (HCC-2998 colon) was > 100 µM and the TGI (HCT-116 colon) was > 100 µM. For the same molecule, the TGI (HT29 colon) was > 100 µM, the TGI (MOLT-4 leukemia) was > 100 µM and the TGI (NCI-H460 lung) was > 100 µM. For the same molecule, the TGI (NCI/ADR-RES ovarian) was > 100 µM, the TGI (OVCAR-5 ovarian) was > 100 µM and the TGI (PC-3 prostate) was > 100 µM. For the same molecule, the TGI (RPMI-8226 leukemia) was > 100 µM, the TGI (RXF 393 renal) was 87.9 µM and the TGI (SF-539 CNS) was > 100 µM. For the same molecule, the TGI (SK-MEL-28 melanoma) was > 100 µM, the TGI (SK-MEL-5 melanoma) was > 100 µM and the TGI (TK-10 renal) was > 100 µM. The TGI (UO-31 renal) was > 100 µM.
